From US11992011B2, “Compounds for controlling plant pathogens” (VIB VZW, priority 2017, dated 2024)

Key:
[1] = system: Meloidogyne graminicola; assay: Meloidogyne graminicola infection in wheat cv. Sahara (Example 5); type: in vivo; details: infected wheat, foliar spray; for Number of galls per AR / Number of galls: n = 9; for Number of galls: per root system; for reduction in gall numbers: vs control
Method: (§1) For Examples 1, 5 and 10, seeds of the winter wheat cultivar Sahara (Aveve Agrarisch, Landen, Belgium) were used. Seeds were washed in a 10% ethanol solution to remove any residual traces of fungicide and then germinated on wet paper at room temperature for four days; seeds were transferred to SAP tubes and placed in a growth chamber (25° C., 16 hours per day of light). Plants were watered with 8 ml of half-strength Hoagland solution every two days for the first ten days and with 8 ml of full strength Hoagland solution every two days afterwards.
(§2) Unless otherwise mentioned, all chemicals for nematode experiments were applied as a foliar spray consisting of the target compound at a concentration of 300 μM together with 0.1% (v/v) Tween 20 surfactant (Calbiochem) in distilled water. Again unless otherwise mentioned, all treatments for the nematode experiments were carried out three times: one and eight days before pathogen inoculation and seven days after pathogen inoculation. In all cases, plants were sprayed until run-off with an atomizer.
(§3) Infection experiments with M. graminicola were performed by inoculating host plants 14 days after transfer to SAP by introducing the desired amount of J2 juveniles next to the root system using a micro pipette. Rice plants (cv. Nipponbare or Kitaake) were inoculated with 250 J2 juveniles per plant; wheat plants (cv. Sahara) were inoculated with 600 J2 juveniles per plant. Plants were harvested 14 days after inoculation. At this point, the plants were phenotyped by measuring the shoot and root length with a ruler, counting the number of adventitious roots and in some experiments by measuring leaf area using the EasyLeafArea software (Easlon and Bloom, 2014) and by determining shoot dry mass after 72 hours of drying in an oven at 70° C. Root systems were then stained in acid fuchsine as described in (Byrd et al., 1983) and left to destain in glycerol with 1 ml/l fuming HCl added for approximately ten days. The number of galls and nematodes was then counted using a binocular microscope.
In this experiment, the compounds PA, MDCA and 4-IBA were tested as foliar spray in the monocot staple crop wheat (Triticum aestivum, cv. Sahara) against the nematode Meloidogyne graminicola. The bacterial compound LPS (lipopolysaccharide), which is a potent inducer of the plant immune system and a known priming agent (Desaki et al., 2006), was also included as a positive control.

[2] = system: carrot; assay: Phytotoxicity of foliar spray in uninfected carrot (Example 1); type: in vivo, Daucus carota; details: 500 μM foliar spray, 8 plants per treatment
Method: Carrot seeds, cv. Nantes 2 (Vreeken's Zaden, Dordrecht, the Netherlands) were germinated on wet paper for seven days at 21° C. After germination, seedlings were transferred to individual pots filled with potting soil and placed in a growth chamber at 21° C.
as §2
Short-term phytotoxicity experiments (Example 1) were analyzed using non-parametric methods. For each variable, overall significance was determined using the Kruskal-Wallis test (Kruskal and Wallis, 1952), followed by a posthoc Conover-Iman test (Conover and Iman, 1981) with Hommel multiplicity correction (Hommel, 1988) if the Kruskal-Wallis test was significant. When only two groups were present, the Wilcoxon-Mann-Whitney test was used (Mann and Whitney, 1947).
To test whether C4H inhibitors induce phytotoxic effects in crops, uninfected tomato, wheat and carrot were treated with piperonylic acid (PA), 4-iodobenzoic acid (4-IBA) and piperic acid (PIA) at a concentration of 500 μM through foliar application. At harvest, leaf area (or shoot length in the case of wheat) and primary root length were recorded. The BBCH developmental stage (Lancashire et al., 1991), a measure of developmental retardation, was used to test for effects on development. Finally, the presence of visible signs of phytotoxicity such as chlorosis, discoloration or necrosis was recorded.

[3] = system: Meloidogyne graminicola; assay: Meloidogyne graminicola infection in rice cv. Kitaake, additional C4H inhibitors (Example 6); type: in vivo; details: foliar spray, N=8
Method: as §2, §3
Four different C4H inhibitors were used: piperonylic acid (PA), piperine (PIP), 4-propynyloxybenzoic acid (4PB) and 3-(4-pyridyl)acrylic acid (3PA).

[4] = system: Pratylenchus penetrans; assay: Pratylenchus penetrans infection in wheat cv. Sahara (Example 10); type: in vivo; details: PA foliar spray
Method: as §1
A pure culture of P. penetrans grown on carrot disks was kindly provided by Giuseppi Lucarelli (Horto Service, Noicattaro, Italy). The nematodes were multiplied by inoculating approximately 100 nematodes on a sterilized carrot disk, placing this disk in a sealed petri dish and incubating the dish at 24° C. for six weeks in the dark. Carrots were sterilized by washing and peeling them, then dipping them in ethanol and finally burning the ethanol off in a Bunsen burner.
as §2
Infection experiments with P. penetrans were performed by inoculating host plants 14 days after transfer to SAP by introducing 500 nematodes to their root system using a micro pipette. Plants were harvested 31 days after inoculation. At this point, the plants were phenotyped. Lesions were counted manually using a magnifying glass after washing and spreading open the root system. Nematodes were counted by macerating the root systems with a kitchen blender, placing a root system in 30 ml of autoclaved tap water for 24 hours and finally counting the number of nematodes in four 500 μl aliquots from each 30 ml root suspension under a binocular microscope.

[5] = system: Fusarium solani (isolate Fso18); assay: Onion seedling emergence with PA seed coating, Fusarium solani (Example 12); type: in vivo; details: onion seeds with 300 μM PA coating vs mock coating
Method: Seed coatings were applied by dipping seeds in a coating solution containing 20 g/I high viscosity carboxymethylcellulose (Sigma-Aldrich, Saint Louis, USA) in distilled water as well as 300 μM of the target compound. Seeds were then dried overnight at room temperature.
Onion seeds were coated with a 300 μM PA solution as outlined in the chemical treatments section. F. oxysporum (isolate Foc26), F. solani (isolate Fso18) and F. proliferatum (isolate Fpr18) were originally extracted from Vietnamese onion fields. Inoculum was obtained as described in the fungal culture section. The inoculum was diluted to a concentration of 1.0×10^7 spores per ml with sterile PBS buffer. The coated seeds were then soaked in the spore solution for one hour. To avoid excessive PA leaching from the PA coating, 100 μM of PA was added to the spore solution.
After soaking in the PA solution, seeds were left to dry for thirty minutes. Twenty seeds were then sowed per pot in potting soil; three pots were used per treatment and per fungal isolate (for a total of 60 seeds per treatment-isolate combination). The pots were covered in cling film and left on a window sill at room temperature. After eight and ten days, the number of germinated seedlings per pot was counted.
Germination experiments were analyzed by fitting a three-parameter log-logistic model as implemented in the R drc package.

[6] = system: Pythium splendens; assay: Pythium splendens in green bean with PA seed coating (Example 22); type: in vivo
Method: FIG. 25: (a) effect of a 500 μM piperonylic acid coating compared to a mock coating on germination in soil with or without Pythium splendens (PA: piperonylic acid coating, no Pythium; CON: mock coating, no Pythium; PA+Ps: piperonylic acid coating, Pythium splendens; CON+Ps: mock coating, Pythium splendens); N=45. (b) plant health score of emerged seedlings fourteen days after the start of the experiment. Scores: 0=seedling died after emergence; 1=seedling alive but stunted; 2=seedling healthy. (c) primary root length fourteen days after the start of the experiment, with bars indicating means and error bars standard deviation.

[7] = infected wheat, mean ± SD, n = 8

In the case of O=C(O)/C=C/c1ccc2c(c1)OCO2 [MDCA, 3,4-methylenedioxycinnamic acid], the “Number of galls per AR” value [1] is reported as 2.4 ± 0.8, the Number of galls [1] is reported as 24.6 ± 6.3 and the “reduction in gall numbers” value [1] is reported as −35%.

O=C(O)c1ccc2c(c1)OCO2 [PA, Piperonylic acid] was tested, and the “Leaf Area” value ([2]; mean ± standard deviation) was 6.07 ± 2.12 cm^2, the BBCH stage ([2]; median ± interquartile range) was 13 ± 0 and the “Number of galls per AR” value [1] was 2.5 ± 1.1. The Number of galls [1] was 25.6 ± 6.5, the “reduction in gall numbers” value [1] was −33% and the “reduction in the number of galls compared to the control group” value [3] was −40%. The Number of lesions [4, 7] was 14.4 ± 6.8, the “Number of nematodes per root system” value [4, 7] was 165.6 ± 61.1 and the “change of mean number of P. penetrans nematodes found in the root system” value ([4]; wheat, vs control) was −32%. The “change of mean number of root lesions in the host plant” value ([4]; wheat, vs control) was −39%, the “improvement of seedling emergence” value [5] was “+27%” and the “emergence in soil containing P. splendens” value ([6]; 500 μM PA seed coating vs mock coating) was “did not improve emergence”. For the same compound, the “seedling health after emergence” value ([6]; 500 μM PA seed coating vs mock coating, fourteen days) was “significantly improved” and the “primary root length in P. splendens-infested soil vs control-coated seeds” value ([6]; 500 μM PA seed coating, fourteen days) was “longer”.
